Measurements from a compilation of properties of binary mixtures (doi:10.1016/j.molliq.2018.12.032).

Experiment: xn = mol fraction of the nth substance listed
Conditions: 101 kPa

C[P+](c1ccccc1)(c1ccccc1)c1ccccc1.[Br-] + OCCO
x1 = 0.25
Conditions | electrical conductivity [S/m] | viscosity [mPa·s]
293.15 K | 0.119 | 211
303.15 K | 0.153 | 136
313.15 K | 0.192 | 89.5
323.15 K | 0.238 | 60.6
333.15 K | 0.291 | 42
343.15 K | 0.352 | 29.7
353.15 K | 0.422 | 21.5

C[P+](c1ccccc1)(c1ccccc1)c1ccccc1.[Br-] + OCCOCCO
x2 = 0.8
Conditions | electrical conductivity [S/m] | viscosity [mPa·s]
293.15 K | 0.0618 | 141
303.15 K | 0.0986 | 103
313.15 K | 0.132 | 60.6
323.15 K | 0.18 | 38.7
333.15 K | 0.258 | 27
343.15 K | 0.294 | 20.4
353.15 K | 0.337 | 18.3

[Cl-].c1ccc(C[P+](c2ccccc2)(c2ccccc2)c2ccccc2)cc1 + OCCO
x1 = 0.083
Conditions | electrical conductivity [S/m] | viscosity [mPa·s]
303.15 K | 0.241 | 43.7
323.15 K | 0.365 | 24.2
333.15 K | 0.441 | 18.4
343.15 K | 0.527 | 14.3
353.15 K | 0.623 | 11.3

[Cl-].c1ccc(C[P+](c2ccccc2)(c2ccccc2)c2ccccc2)cc1 + OCCOCCO
x2 = 0.875
Conditions | electrical conductivity [S/m] | viscosity [mPa·s]
293.15 K | 0.0466 | –
303.15 K | 0.0706 | 102
323.15 K | 0.116 | 42.3
333.15 K | 0.147 | 30
343.15 K | 0.158 | 22.8
